Source: ChEMBL document CHEMBL6087427, “Discovery of novel cyclopentane carboxylic acids as potent and selective inhibitors of NaV1.7” (Bioorg Med Chem Lett, 2025)

Experiments:
[1] = target: T1, Sodium channel protein type 9 subunit alpha (Homo sapiens, UniProt Q15858); test: Displacement of [3H]GX-545 from Nav1.7 VSD4 (unknown origin)
Target sequence in this assay (Q15858 whole entry): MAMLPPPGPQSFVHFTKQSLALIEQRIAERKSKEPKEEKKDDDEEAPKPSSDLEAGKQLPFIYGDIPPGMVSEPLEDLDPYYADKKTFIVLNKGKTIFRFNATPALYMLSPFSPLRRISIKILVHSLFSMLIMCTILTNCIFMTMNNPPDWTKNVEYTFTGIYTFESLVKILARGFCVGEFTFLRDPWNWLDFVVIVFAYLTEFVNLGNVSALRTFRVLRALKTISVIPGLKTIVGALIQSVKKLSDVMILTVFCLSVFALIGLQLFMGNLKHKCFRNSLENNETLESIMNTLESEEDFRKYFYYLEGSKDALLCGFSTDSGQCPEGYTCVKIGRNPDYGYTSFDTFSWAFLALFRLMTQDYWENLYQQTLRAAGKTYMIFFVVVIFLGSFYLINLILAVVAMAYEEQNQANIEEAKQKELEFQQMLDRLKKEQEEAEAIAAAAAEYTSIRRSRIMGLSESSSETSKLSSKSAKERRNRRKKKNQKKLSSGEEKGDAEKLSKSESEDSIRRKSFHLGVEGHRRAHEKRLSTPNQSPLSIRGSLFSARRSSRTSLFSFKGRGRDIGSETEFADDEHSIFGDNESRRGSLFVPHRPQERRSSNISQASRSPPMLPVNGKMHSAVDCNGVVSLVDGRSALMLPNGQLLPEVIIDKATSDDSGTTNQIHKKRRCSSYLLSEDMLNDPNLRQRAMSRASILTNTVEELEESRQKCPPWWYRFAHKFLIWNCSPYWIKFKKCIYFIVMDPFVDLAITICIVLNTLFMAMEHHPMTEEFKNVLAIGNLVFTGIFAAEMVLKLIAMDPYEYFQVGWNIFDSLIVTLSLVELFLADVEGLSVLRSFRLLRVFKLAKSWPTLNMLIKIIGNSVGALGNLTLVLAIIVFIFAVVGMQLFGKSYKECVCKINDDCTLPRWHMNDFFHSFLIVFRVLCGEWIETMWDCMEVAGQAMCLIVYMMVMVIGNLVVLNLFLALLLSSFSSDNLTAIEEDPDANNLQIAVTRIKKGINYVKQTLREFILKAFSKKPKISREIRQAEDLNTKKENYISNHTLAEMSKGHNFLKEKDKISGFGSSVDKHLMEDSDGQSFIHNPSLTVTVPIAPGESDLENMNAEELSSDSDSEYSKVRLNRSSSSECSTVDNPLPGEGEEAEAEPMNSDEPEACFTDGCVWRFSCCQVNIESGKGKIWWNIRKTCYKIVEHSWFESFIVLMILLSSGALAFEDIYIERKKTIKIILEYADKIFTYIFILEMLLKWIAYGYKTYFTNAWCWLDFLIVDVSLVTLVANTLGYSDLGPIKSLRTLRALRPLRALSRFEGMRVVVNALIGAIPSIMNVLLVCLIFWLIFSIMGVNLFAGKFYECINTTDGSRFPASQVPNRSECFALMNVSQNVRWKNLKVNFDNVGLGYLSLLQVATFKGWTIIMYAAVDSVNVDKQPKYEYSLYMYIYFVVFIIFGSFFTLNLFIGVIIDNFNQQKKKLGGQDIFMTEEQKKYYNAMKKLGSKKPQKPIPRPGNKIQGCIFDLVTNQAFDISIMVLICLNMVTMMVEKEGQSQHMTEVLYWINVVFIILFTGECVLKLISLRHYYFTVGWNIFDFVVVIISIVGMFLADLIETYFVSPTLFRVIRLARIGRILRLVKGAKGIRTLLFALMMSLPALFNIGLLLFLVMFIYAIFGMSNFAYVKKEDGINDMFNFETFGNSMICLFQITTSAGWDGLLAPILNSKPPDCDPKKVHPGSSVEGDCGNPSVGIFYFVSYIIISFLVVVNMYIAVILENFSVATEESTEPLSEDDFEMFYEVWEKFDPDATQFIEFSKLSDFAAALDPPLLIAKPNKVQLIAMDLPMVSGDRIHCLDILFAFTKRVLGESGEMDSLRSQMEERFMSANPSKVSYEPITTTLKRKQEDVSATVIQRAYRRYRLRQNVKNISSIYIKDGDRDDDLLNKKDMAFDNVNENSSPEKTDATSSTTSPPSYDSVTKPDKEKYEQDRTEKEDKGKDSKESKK

[2] = Metabolic stability in human liver microsomes assessed as hepatic clearance; format: ADME, Microsome
[3] = target: T1, Sodium channel protein type 9 subunit alpha; test: Inhibition of human Nav1.7 by sodium flux assay
Target sequence in this assay (Q15858 whole entry): as above

[4] = AUC in mouse at 3 mg/kg, po; format: ADME, organism-based; settings: in vivo, read-out: AUC
[5] = target: T1, Sodium channel protein type 9 subunit alpha; test: Inhibition of human Nav1.7 by patch clamp electrophysiology
Target sequence in this assay (Q15858 whole entry): as above

[6] = target: T1, Sodium channel protein type 9 subunit alpha; test: Inhibition of human Nav1.7 assessed as fold shift in IC50 in presence of BSA by sodium flux assay
Target sequence in this assay (Q15858 whole entry, looked up): as the sequence (Q15858 whole entry) above

[7] = Metabolic stability in mouse liver microsomes assessed as hepatic clearance; format: ADME, Microsome

**Q.** Which Ki [1] does the source give for `O=C(O)[C@@H]1C[C@@H](F)CN1C(=O)c1cc(C2CC2)c(OCC23CC4CC(CC(C4)C2)C3)cc1F` here?
**A.** The Ki was 7 nM.

**Q.** With `O=C(O)[C@@H]1C[C@H](O)CN1C(=O)c1cc(C2CC2)c(OCC23CC4CC(CC(C4)C2)C3)cc1F` as the molecule, how does the Ki [1] read?
**A.** The Ki was 150 nM.

**Q.** For `CO[C@@H]1CN(C(=O)c2cc(C3CC3)c(OCC34CC5CC(CC(C5)C3)C4)cc2F)[C@H](C(=O)O)[C@H]1C`, which Ki [1] is on record?
**A.** Its Ki is 36 nM.

**Q.** With `O=C(O)[C@@H]1[C@H](O)CCN1C(=O)c1cc(C2CC2)c(OCC23CC4CC(CC(C4)C2)C3)cc1F` as the molecule, how does the Ki [1] read?
**A.** Its Ki is 160 nM.

**Q.** Which CLhep predicted [2] does the source give for `O=C(O)[C@@H]1CCCN1C(=O)c1cc(C2CC2)c(OCC23CC4CC(CC(C4)C2)C3)cc1F` here?
**A.** The CLhep predicted was 11 mL/min/kg.

**Q.** What about the IC50 [3] of the same molecule?
**A.** Its IC50 is 180 nM.

**Q.** What about the AUC [4] of the same molecule?
**A.** Its AUC is 0.079 µM·h.

**Q.** And the IC50 [5]?
**A.** The IC50 was 33 nM.

**Q.** And the fold change (FC) [6]?
**A.** The fold change (FC) was 2.2.

**Q.** What about the CLhep predicted [7] of the same molecule?
**A.** Its CLhep predicted is 61 mL/min/kg.

**Q.** And the Ki [1]?
**A.** The Ki was 20 nM.

**Q.** Which Ki [1] does the source give for `C[C@@H]1[C@H](F)CN(C(=O)c2cc(C3CC3)c(OCC34CC5CC(CC(C5)C3)C4)cc2F)[C@@H]1C(=O)O` here?
**A.** Its Ki is 220 nM.

**Q.** Which Ki [1] does the source give for `C[C@H]1C[C@@H](C(=O)O)N(C(=O)c2cc(C3CC3)c(OCC34CC5CC(CC(C5)C3)C4)cc2F)C1` here?
**A.** The Ki was 49 nM.

**Q.** Which Ki [1] does the source give for `C[C@@]1(C(=O)O)CCCN1C(=O)c1cc(C2CC2)c(OCC23CC4CC(CC(C4)C2)C3)cc1F` here?
**A.** Its Ki is 100 nM.

**Q.** For `O=C(O)[C@@H]1C[C@@H](O)CN1C(=O)c1cc(C2CC2)c(OCC23CC4CC(CC(C4)C2)C3)cc1F`, which Ki [1] is on record?
**A.** The Ki was 390 nM.

**Q.** Which Ki [1] does the source give for `N#C[C@H]1C[C@@H](C(=O)O)N(C(=O)c2cc(C3CC3)c(OCC34CC5CC(CC(C5)C3)C4)cc2F)C1` here?
**A.** The Ki was 870 nM.

**Q.** With `O=C(O)[C@@H]1[C@@H](O)CCN1C(=O)c1cc(C2CC2)c(OCC23CC4CC(CC(C4)C2)C3)cc1F` as the molecule, how does the Ki [1] read?
**A.** Its Ki is 600 nM.

**Q.** For `O=C(O)[C@@H]1[C@H](F)CCN1C(=O)c1cc(C2CC2)c(OCC23CC4CC(CC(C4)C2)C3)cc1F`, which Ki [1] is on record?
**A.** The Ki was 170 nM.

**Q.** Which Ki [1] does the source give for `O=C(O)[C@@H]1C2CC(C2)N1C(=O)c1cc(C2CC2)c(OCC23CC4CC(CC(C4)C2)C3)cc1F` here?
**A.** Its Ki is 190 nM.
